Measurements from ChEMBL document CHEMBL2311339, “Identification of GZD824 as an orally bioavailable inhibitor that targets phosphorylated and nonphosphorylated breakpoint cluster region-Abelson (Bcr-Abl) kinase and overcomes clinically acquired mutation-induced resistance against imatinib” (J Med Chem, 2013).
Active and inactive are the calls of the source. No cut-off for these calls is given here.

Tests used:
K562 = test: Antitumor activity against human K562 cells xenografted in mouse assessed as eradication of tumor at 5 to 10 mg/kg, po qd for 6 days; assay type: functional, organism-based
[1] = molecular target: Angiopoietin-1 receptor (Homo sapiens) (UniProt Q02763); test: Binding affinity to TIE2 (unknown origin) at 10 nM after 2 hrs by FRET assay
[2] = molecular target: Serine/threonine-protein kinase B-raf (Homo sapiens) (UniProt P15056); test: Binding affinity to BRAF (unknown origin) at 10 nM after 2 hrs by FRET assay
[3] = molecular target: Tyrosine-protein kinase ABL1 (Homo sapiens, UniProt P00519, T315I); test: Binding affinity to phosphorylated ABL1 T315I mutant (unknown origin) after 1 hr
[4] = molecular target: T1, Tyrosine-protein kinase ABL1 (Homo sapiens, UniProt P00519); test: Binding affinity to non phosphorylated wild type ABL1 (unknown origin) after 1 hr
[5] = molecular target: Tyrosine-protein kinase ABL1 (Homo sapiens, UniProt P00519, G250E); assay type: cell-based
[6] = molecular target: T1, Tyrosine-protein kinase ABL1; test: Inhibition of human recombinant wild type ABL1 expressed in insect cells after 30 mins by FRET assay; assay type: cell-based
cells = settings: Mus musculus, BaF3, 72 h

Sequence of Angiopoietin-1 receptor (Homo sapiens) (Q02763 whole entry): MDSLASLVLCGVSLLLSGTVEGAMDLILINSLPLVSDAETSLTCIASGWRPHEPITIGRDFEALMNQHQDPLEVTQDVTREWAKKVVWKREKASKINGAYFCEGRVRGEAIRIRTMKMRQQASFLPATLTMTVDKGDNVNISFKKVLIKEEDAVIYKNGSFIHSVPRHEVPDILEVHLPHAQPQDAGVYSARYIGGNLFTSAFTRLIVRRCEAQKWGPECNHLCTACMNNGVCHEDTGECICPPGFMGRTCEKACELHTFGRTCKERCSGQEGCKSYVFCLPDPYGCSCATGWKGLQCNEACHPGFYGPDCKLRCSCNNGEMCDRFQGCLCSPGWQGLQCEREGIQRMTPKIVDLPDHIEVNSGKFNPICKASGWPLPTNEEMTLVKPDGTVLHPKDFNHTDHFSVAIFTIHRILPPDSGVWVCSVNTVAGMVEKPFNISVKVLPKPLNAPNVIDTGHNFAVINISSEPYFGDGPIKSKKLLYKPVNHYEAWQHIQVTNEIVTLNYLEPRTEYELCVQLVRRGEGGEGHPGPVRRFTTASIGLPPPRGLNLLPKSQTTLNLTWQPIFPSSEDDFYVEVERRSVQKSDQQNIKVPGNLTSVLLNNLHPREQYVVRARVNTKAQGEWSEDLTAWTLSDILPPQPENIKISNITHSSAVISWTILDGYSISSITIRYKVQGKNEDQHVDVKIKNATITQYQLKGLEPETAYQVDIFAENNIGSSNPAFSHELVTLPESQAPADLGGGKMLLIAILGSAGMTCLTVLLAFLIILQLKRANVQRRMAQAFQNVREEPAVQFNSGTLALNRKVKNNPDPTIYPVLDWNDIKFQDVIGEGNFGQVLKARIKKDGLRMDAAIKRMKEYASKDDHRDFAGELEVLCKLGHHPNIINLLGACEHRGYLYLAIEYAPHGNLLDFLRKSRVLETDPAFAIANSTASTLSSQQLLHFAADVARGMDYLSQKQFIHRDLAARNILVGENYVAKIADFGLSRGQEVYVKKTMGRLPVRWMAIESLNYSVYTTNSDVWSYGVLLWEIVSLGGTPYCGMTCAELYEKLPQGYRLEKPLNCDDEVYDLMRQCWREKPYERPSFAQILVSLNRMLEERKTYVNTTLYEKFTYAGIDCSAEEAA
Sequence of Serine/threonine-protein kinase B-raf (Homo sapiens) (P15056 whole entry): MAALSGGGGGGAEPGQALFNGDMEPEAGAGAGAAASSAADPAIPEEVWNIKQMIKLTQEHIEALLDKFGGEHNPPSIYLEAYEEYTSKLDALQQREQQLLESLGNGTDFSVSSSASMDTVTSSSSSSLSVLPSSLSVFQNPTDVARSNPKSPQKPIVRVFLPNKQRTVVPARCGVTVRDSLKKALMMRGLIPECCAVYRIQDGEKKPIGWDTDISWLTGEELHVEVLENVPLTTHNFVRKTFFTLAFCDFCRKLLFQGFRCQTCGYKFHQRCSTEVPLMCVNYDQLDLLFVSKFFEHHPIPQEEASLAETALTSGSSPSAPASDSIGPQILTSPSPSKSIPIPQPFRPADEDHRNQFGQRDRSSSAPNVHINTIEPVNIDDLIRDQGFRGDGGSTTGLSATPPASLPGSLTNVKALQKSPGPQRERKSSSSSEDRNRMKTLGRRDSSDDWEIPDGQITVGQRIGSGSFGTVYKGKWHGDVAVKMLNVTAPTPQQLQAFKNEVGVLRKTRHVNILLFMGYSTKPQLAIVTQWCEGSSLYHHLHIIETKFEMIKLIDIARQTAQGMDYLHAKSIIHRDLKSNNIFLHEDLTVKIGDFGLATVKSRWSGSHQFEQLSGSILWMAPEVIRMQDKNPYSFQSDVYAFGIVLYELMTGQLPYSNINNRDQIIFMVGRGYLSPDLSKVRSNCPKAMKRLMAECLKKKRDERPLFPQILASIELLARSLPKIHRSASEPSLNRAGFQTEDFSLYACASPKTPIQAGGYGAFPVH

Question: For Cc1ccc(C(=O)Nc2ccc(CN3CCN(C)CC3)c(C(F)(F)F)c2)cc1C#Cc1cnc2[nH]ncc2c1 [OLVEREMBATINIB], which Activity (K562) is on record?
Answer: Active

Question: And the Activity [1]?
Answer: inactive

Question: What about the Activity [2] of the same compound?
Answer: inactive

Question: And the Kd [3]?
Answer: 3.2 nM

Question: What about the Kd [4] of the same compound?
Answer: 0.32 nM

Question: And the IC50 [5]?
Answer: 0.71 nM

Question: And the IC50 [6]?
Answer: 0.34 nM

Question: And the IC50 (cells)?
Answer: 6 nM
